Format in all cases: cell-based, human
For assay [1], the system named is YAP1 overexpression in U2OS cells. Description: Cell Painting morphological profile matching to YAP1/TAZ overexpression signature. To be noted: Pearson correlation of Cell Painting signatures, U2OS cells. From the text:
(§1) Of these, analysis of the 220 constructs that were most closely representative of the annotated full-length transcripts was prioritized. […] Not all genes are likely to impact cellular morphology given the limitation of the experiment; using a single cell line at a single time point under a single set of conditions and stained with six fluorescent labels.
FIG. 2 provides an example characterization of matching the morphological signature of a gene query to the signature(s) of compounds in a library. Connections which show both positive and negative large correlations are considered as matches.
(§2) This standardization was done plate wise, based on the mean and standard deviation of the controls at profile level for the compound dataset. […] The signatures were then obtained by averaging the replicate profiles feature-wise. Pearson correlation was used on the aligned signatures of a gene and compound to score their connection.

Assay [2] has as its system TRAF2 overexpression in U2OS cells. Put plainly: Cell Painting morphological profile matching to TRAF2 overexpression. The following applies: Pearson correlation of Cell Painting signatures, U2OS cells.
Source text: as §1, §2

Assay [3] relates to U2OS cells. Put plainly: Cell count in U2OS Cell Painting images. The following applies: U2OS Cell Painting.
Source text: as §1, §2

With `N#Cc1nn(-c2c(Cl)cc(C(F)(F)F)cc2Cl)c(N)c1[S+]([O-])C(F)(F)F` (stereo not drawn) [BRD-A50675702, 5-amino-1-[2,6-dichloro-4-(trifluoromethyl)phenyl]-4-(trifluoromethane)sulfinyl-1H-pyrazole-3-carbonitrile], the “Corr. to YAP1 cluster” value in assay [1] is on record as 0.5102. The “Corr. to TRAF2” value in assay [2] was −0.4752. Besides, in assay [3], the “Avg. Cell Count z-score” value is −0.1188.

Regarding `Cc1ccc(S(=O)(=O)NC(=O)NN2CC3CCCC3C2)cc1` (stereo not drawn) [BRD-A61154809, 1-(3,3a,4,5,6,6a-hexahydro-1H-cyclopenta[c]pyrrol-2-yl)-3-(4-methylphenyl)sulfonylurea], the “Corr. to YAP1 cluster” value in assay [1] worked out at 0.4401. Also, in assay [2], the “Corr. to TRAF2” value is recorded as −0.3313. Also, in assay [3], the “Avg. Cell Count z-score” value was 0.8203.

With `CNC[C@@H]1Oc2c(NS(=O)(=O)c3ccc(F)cc3)cccc2C(=O)N([C@H](C)CO)C[C@H]1C` [BRD-K00135177, 4-fluoro-N-[(2R,3R)-5-[(2R)-1-hydroxypropan-2-yl]-3-methyl-2-(methylaminomethyl)-6-oxo-3,4-dihydro-2H-1,5-benzoxazocin-10-yl]benzenesulfonamide], the “Corr. to YAP1 cluster” value in assay [1] was 0.5004. Besides, the “Corr. to TRAF2” value in assay [2] is given as −0.3649. Moreover, in assay [3], the “Avg. Cell Count z-score” value amounted to 0.4009.

Take `CN1c2cc3c(cc2N=C(c2ccc(C(=O)O)cc2)c2ccccc21)C(C)(C)CCC3(C)C` [BRD-K06593056, 4-(5,7,7,10,10-pentamethyl-8,9-dihydronaphtho[2,3-b][1,4]benzodiazepin-13-yl)benzoic acid]: in assay [1], the “Corr. to YAP1 cluster” value is reported as 0.4357. The “Corr. to TRAF2” value in assay [2] is recorded as −0.4512. Further, the “Avg. Cell Count z-score” value in assay [3] is reported as −0.7909.

With `O=C(C[C@H]1CC[C@H](NC(=O)CCN2CCCCC2)[C@@H](CO)O1)Nc1nccs1` [BRD-K11266478, N-[(2S,3S,6R)-2-(hydroxymethyl)-6-[2-oxo-2-(1,3-thiazol-2-ylamino)ethyl]oxan-3-yl]-3-piperidin-1-ylpropanamide], in assay [1], the “Corr. to YAP1 cluster” value is recorded as 0.4988. Further, the “Corr. to TRAF2” value in assay [2] is −0.4398. In assay [3], the “Avg. Cell Count z-score” value is reported as 0.4851.

As for `Clc1nc(NCc2ccccc2)c2ccccc2n1` [BRD-K11758216, N-benzyl-2-chloroquinazolin-4-amine], the “Corr. to YAP1 cluster” value in assay [1] was 0.5078. Further, in assay [2], the “Corr. to TRAF2” value was −0.4406. In addition, the “Avg. Cell Count z-score” value in assay [3] is listed as −1.202.

For the compound `C[C@H](CO)N1C[C@H](C)[C@H](CN(C)C)Oc2cc(C#Cc3ccccn3)ccc2S1(=O)=O` [BRD-K13719685, (4S,5R)-5-((dimethylamino)methyl)-2-((R)-1-hydroxypropan-2-yl)-4-methyl-8-(pyridin-2-ylethynyl)-2,3,4,5-tetrahydrobenzo[b][1,4,5]oxathiazocine 1,1-dioxide], the “Corr. to YAP1 cluster” value in assay [1] is on record as −0.4426. Further, the “Corr. to TRAF2” value in assay [2] turned out to be 0.3591. In addition, the “Avg. Cell Count z-score” value in assay [3] was 2.104.

On to `COc1ccc(Cc2nccc3cc(OC)c(OC)cc23)cc1OC` [BRD-K15567136, 1-[(3,4-dimethoxyphenyl)methyl]-6,7-dimethoxyisoquinoline], for which the “Corr. to YAP1 cluster” value in assay [1] was 0.4464. Further, the “Corr. to TRAF2” value in assay [2] is on record as −0.4936. Moreover, in assay [3], the “Avg. Cell Count z-score” value is listed as −0.6568.

Consider `C[C@H]1CN([C@@H](C)CO)C(=O)CCCn2nncc2CO[C@H]1CN(C)C(=O)Nc1cccc(Oc2ccccn2)c1` [BRD-K19969618, 1-[[(8S,9R)-6-[(2S)-1-hydroxypropan-2-yl]-8-methyl-5-oxo-10-oxa-1,6,14,15-tetrazabicyclo[10.3.0]pentadeca-12,14-dien-9-yl]methyl]-1-methyl-3-(3-pyridin-2-yloxyphenyl)urea], for which the “Corr. to YAP1 cluster” value in assay [1] is reported as 0.5483. Further, in assay [2], the “Corr. to TRAF2” value is recorded as −0.4667. The “Avg. Cell Count z-score” value in assay [3] worked out at 0.7797.

For the compound `CCCC(=O)Nc1ccc2c(c1)C(=O)N(C)C[C@H](OC)[C@H](C)CN(Cc1ccccc1)[C@@H](C)CO2` [BRD-K22754756, N-[(4S,7R,8R)-8-methoxy-4,7,10-trimethyl-11-oxo-5-(phenylmethyl)-2-oxa-5,10-diazabicyclo[10.4.0]hexadeca-1(12),13,15-trien-14-yl]butanamide], the “Corr. to YAP1 cluster” value in assay [1] is recorded as 0.4966. Also, the “Corr. to TRAF2” value in assay [2] is on record as −0.297. Also, the “Avg. Cell Count z-score” value in assay [3] is −1.409.

On to `CO[C@H]1CN(C)C(=O)c2cc(NC(=O)C3CCCCC3)ccc2OC[C@@H](C)N(Cc2nccs2)C[C@@H]1C` [BRD-K22874335, N-[(4R,7S,8R)-8-methoxy-4,7,10-trimethyl-11-oxo-5-(1,3-thiazol-2-ylmethyl)-2-oxa-5,10-diazabicyclo[10.4.0]hexadeca-1(12),13,15-trien-14-yl]cyclohexanecarboxamide], for which the “Corr. to YAP1 cluster” value in assay [1] stood at 0.4904. The “Corr. to TRAF2” value in assay [2] is on record as −0.362. Besides, the “Avg. Cell Count z-score” value in assay [3] is −1.704.

For `O=C(C[C@@H]1C[C@H]2c3cc(NC(=O)C4CCC4)ccc3O[C@H]2[C@H](CO)O1)NCc1ccccn1` [BRD-K28043081, N-[(1S,3S,4aS,9aR)-1-(hydroxymethyl)-3-[2-oxo-2-(pyridin-2-ylmethylamino)ethyl]-3,4,4a,9a-tetrahydro-1H-pyrano[3,4-b][1]benzofuran-6-yl]cyclobutanecarboxamide], the “Corr. to YAP1 cluster” value in assay [1] worked out at 0.527. The “Corr. to TRAF2” value in assay [2] is −0.406. In addition, the “Avg. Cell Count z-score” value in assay [3] was −0.5533.

For the compound `O=C(NCC1CC1)[C@@H]1N[C@@H]2c3ccc(C4=CCCCC4)c(=O)n3C[C@@H]2[C@H]1CO` [BRD-K37451830, (2R,3R,3aS,9bS)-7-(1-cyclohexenyl)-N-(cyclopropylmethyl)-3-(hydroxymethyl)-6-oxo-1,2,3,3a,4,9b-hexahydropyrrolo[2,3-a]indolizine-2-carboxamide], the “Corr. to YAP1 cluster” value in assay [1] stood at 0.4802. Also, in assay [2], the “Corr. to TRAF2” value is listed as −0.4167. Further, the “Avg. Cell Count z-score” value in assay [3] is −0.0043.

In the case of `CCCNC(=O)N1[C@@H]2c3ccc(-c4ccccc4OC)c(=O)n3C[C@H]1[C@H](CO)[C@H]2C(=O)NCC` [BRD-K39839146, (1S,9R,10R,11R)-11-N-ethyl-10-(hydroxymethyl)-5-(2-methoxyphenyl)-6-oxo-12-N-propyl-7,12-diazatricyclo[7.2.1.02,7]dodeca-2,4-diene-11,12-dicarboxamide], the “Corr. to YAP1 cluster” value in assay [1] was 0.4835. Besides, the “Corr. to TRAF2” value in assay [2] is on record as −0.4284. Further, the “Avg. Cell Count z-score” value in assay [3] is 0.2185.

Turning to `O=C(C[C@H]1C=C[C@@H](NC(=O)Nc2cc(F)ccc2F)[C@H](CO)O1)NCCCN1CCOCC1` [BRD-K40143134, 2-[(2R,3R,6S)-3-[[(2,5-difluoroanilino)-oxomethyl]amino]-2-(hydroxymethyl)-3,6-dihydro-2H-pyran-6-yl]-N-[3-(4-morpholinyl)propyl]acetamide], in assay [1], the “Corr. to YAP1 cluster” value was 0.5009. In addition, in assay [2], the “Corr. to TRAF2” value was −0.3428. Further, the “Avg. Cell Count z-score” value in assay [3] is on record as −0.1148.

For the compound `O=C(C[C@H]1CC[C@@H]2[C@H](COC[C@@H](O)CN2Cc2ccc3c(c2)OCO3)O1)N1CCCCC1` [BRD-K41723088, 2-[(3S,6aR,8R,10aR)-1-(1,3-benzodioxol-5-ylmethyl)-3-hydroxy-3,4,6,6a,8,9,10,10a-octahydro-2H-pyrano[2,3-c][1,5]oxazocin-8-yl]-1-piperidin-1-ylethanone], the “Corr. to YAP1 cluster” value in assay [1] was 0.4916. Further, the “Corr. to TRAF2” value in assay [2] is reported as −0.4389. For the same compound, the “Avg. Cell Count z-score” value in assay [3] is −0.07095.

With `O=c1c(-c2ccc(O)cc2)coc2cc(O)ccc12` [BRD-K42095107, 7-hydroxy-3-(4-hydroxyphenyl)chromen-4-one], the “Corr. to YAP1 cluster” value in assay [1] is 0.4583. The “Corr. to TRAF2” value in assay [2] is given as −0.372. For the same compound, the “Avg. Cell Count z-score” value in assay [3] is given as −0.8813.

In the case of `CO[C@@H]1CN(C)C(=O)c2ccc(NC(=O)c3ccccc3F)cc2OC[C@H](C)N(CC2CC2)C[C@@H]1C` [BRD-K42367391, N-[(5S,6S,9S)-8-(cyclopropylmethyl)-5-methoxy-3,6,9-trimethyl-2-oxo-11-oxa-3,8-diazabicyclo[10.4.0]hexadeca-1(12),13,15-trien-14-yl]-2-fluorobenzamide], in assay [1], the “Corr. to YAP1 cluster” value turned out to be 0.4887. In addition, in assay [2], the “Corr. to TRAF2” value is given as −0.2728. Besides, in assay [3], the “Avg. Cell Count z-score” value is recorded as −0.9374.

For the compound `O=C(Nc1ccncc1)Nc1c(Cl)cc(Cl)cc1Cl` [BRD-K46678324, 1-pyridin-4-yl-3-(2,4,6-trichlorophenyl)urea], in assay [1], the “Corr. to YAP1 cluster” value is on record as 0.4284. Besides, the “Corr. to TRAF2” value in assay [2] is −0.3397. For the same compound, the “Avg. Cell Count z-score” value in assay [3] is −0.7252.

Regarding `O=C(N[C@H]1CC[C@@H](CCNS(=O)(=O)c2ccc(F)cc2)O[C@H]1CO)C1CCOCC1` [BRD-K48052543, N-[(2R,3S,6S)-6-[2-[(4-fluorophenyl)sulfonylamino]ethyl]-2-(hydroxymethyl)oxan-3-yl]oxane-4-carboxamide], in assay [1], the “Corr. to YAP1 cluster” value stood at 0.5099. Besides, the “Corr. to TRAF2” value in assay [2] is on record as −0.4132. Moreover, the “Avg. Cell Count z-score” value in assay [3] amounted to 0.09801.

Regarding `O=C(Nc1ccc2c(c1)[C@H]1C[C@@H](CC(=O)N3CCCCC3)O[C@@H](CO)[C@H]1O2)C1CCOCC1` [BRD-K62768599, N-[(1S,3S,4aR,9aS)-1-(hydroxymethyl)-3-[2-oxo-2-(1-piperidinyl)ethyl]-3,4,4a,9a-tetrahydro-1H-pyrano[3,4-b]benzofuran-6-yl]-4-oxanecarboxamide], the “Corr. to YAP1 cluster” value in assay [1] was found to be 0.4883. Further, in assay [2], the “Corr. to TRAF2” value is recorded as −0.5272. The “Avg. Cell Count z-score” value in assay [3] is −0.7392.

The values above are taken from US20230255970A1, “COMPOSITIONS AND METHODS FOR TREATING PROLIFERATIVE DISEASES” (The Broad Institute, Inc., priority 2020, published 2023).
